In US20220170930A1, “METHOD FOR SCREENING COMPOUND FOR TREATING OR PREVENTING POLYQ-RELATED NEURODEGENERATIVE DISEASES” (FUDAN UNIVERSITY, priority 2019, published 2022):

Columns and labels:
mHTT [1] = experiment: Intracerebroventricular injection, mHTT and wtHTT in cortices of HD mice; format: in vivo, mouse
Method: Experimental animals: Hdh^Q140/Q7 mice (3 months old), 4 in each group.
Each test includes three repetitions for each sample, and the mean values was calculated (FIG. 16).

Q72-GFP [2] = experiment: MST affinity with Q72-GFP
Method: (§3) The affinity of the compound with full-length HTT and LC3B was verified with micro thermophoresis (MST) using Monolith NT.115 instrument from NanoTemper Technologies. The reaction buffer was 20 mM HEPES, pH 7.4, 150 mM NaCl.

Q25-GFP [3] = experiment: MST affinity with Q25-GFP
Method: as §3

Q38-GFP = experiment: OI-RD affinity reaction parameters with Q38-GFP; format: binding
Source text: (§1) (1) PolyQ-GFP cDNA sequence (expressing Met-polyQ-GFP, wherein polyQ was Q72 or Q25) was synthesized de novo and subcloned into pcDNA vector. […] And the same method was used to obtain cells expressing Q53-GFP, cells expressing Q46-GFP, and cells expressing Q38-GFP.

Q53-GFP = experiment: OI-RD affinity reaction parameters with Q53-GFP; format: binding
Source text: as §1

mHTT [4] = experiment: Western-blot mHTT level in primary cultured cortical neurons; format: cell-based, mouse; conditions: 2 days
Method: Primary cultured cortical neurons: The brains of Hdh^Q140/Q7 and Hdh^Q7/Q7 newborn mice (P0) were dissected, digested, dissociated, and cultured.
(1) The primary cultured Hdh^Q140/Q7 and Hdh^Q7/Q7 mouse cortical neuron cells were treated with the compound for 2 days.

LC3B = molecular target: T1, LC3B (Homo sapiens, UniProt Q9GZQ8); experiment: OI-RD affinity with LC3B; format: binding
T1 construct: His8 (N, cleaved yes); GST (from pGEX-6P1) (N, cleaved yes); made in house; host or cells: E. coli BL21(DE3)pLsyS
Method: 01-RD images before and after incubation with the target protein was obtained following the method in (1).
The difference images of the above steps (1), (2), (3) (the image after incubation minus the image before incubation) was analyzed respectively.
(§2) Each compound was printed in triplicates on the microarray. 01-RD was used to measure the affinity reaction parameters of the compound with LC3B, full-length mHTT (flHTT-Q73) and full-length HTT-Q23 (flHTT-Q23).

[5] = molecular target: T2, mutant ATXN3 protein (ATXN3-Q74) (Homo sapiens, UniProt P54252, G306R/INS305QQQQQQQQQQQQQQQQQQQQQQQQQQQQQQQQQQQQQQQQQQQQQQQQQQQQQQQQQQQQQQQQ/V212M); experiment: Western-blot mutant ATXN3 level in SCA3 patient fibroblasts; format: cell-based; conditions: 100 nM (compound 4: 50 nM), 2 days
T2 construct: endogenous in cells; host or cells: SCA3 patient fibroblasts (Q74)
T2 sequence (P54252 with tags, fused parts or gaps isoform P54252-1 with the stated changes): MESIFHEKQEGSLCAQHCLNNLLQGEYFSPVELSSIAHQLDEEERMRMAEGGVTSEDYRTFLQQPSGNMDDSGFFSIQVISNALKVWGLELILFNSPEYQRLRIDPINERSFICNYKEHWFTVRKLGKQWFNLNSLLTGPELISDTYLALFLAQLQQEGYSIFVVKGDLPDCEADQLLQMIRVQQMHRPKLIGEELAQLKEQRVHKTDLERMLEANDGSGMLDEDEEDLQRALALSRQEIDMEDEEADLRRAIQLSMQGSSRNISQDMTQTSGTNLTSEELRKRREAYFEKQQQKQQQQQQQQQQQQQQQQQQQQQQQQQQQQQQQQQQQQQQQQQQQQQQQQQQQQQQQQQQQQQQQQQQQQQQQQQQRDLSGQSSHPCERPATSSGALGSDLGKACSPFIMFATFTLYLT
Method: Then the levels of mutant ATXN3 protein (ATXN3-Q74, SEQ ID NO: 2) and wild-type ATXN3 protein (ATXN3-Q27, SEQ ID NO: 7) were determined by Western-blots (FIG. 26). […] Therefore, the compound of the present invention can be used to treat SCA3.

in vivo = conditions: mouse, ip, 0.5 mg/kg
Method: Experimental method: The compound or control DMSO was diluted with 0.9% NaCl intravenous infusion solution to 0.05 μg/μL. One ip-injection (0.5 mg/kg) was conducted per day. After 14 days of injection, tissue extraction or behavioral experiment were conducted.

MBP-ATXN3-Q68 = MBP-ATXN3-Q68 (Homo sapiens, UniProt P54252, INS305QQQQQQQQQQQQQQQQQQQQQQQQQQQQQQQQQQQQQQQQQQQQQQQQQQQQQQQQQQ); experiment: MST affinity with MBP-ATXN3-Q68
MBP-ATXN3-Q68, sequence (P54252 with tags, fused parts or gaps isoform P54252-4 with the stated changes): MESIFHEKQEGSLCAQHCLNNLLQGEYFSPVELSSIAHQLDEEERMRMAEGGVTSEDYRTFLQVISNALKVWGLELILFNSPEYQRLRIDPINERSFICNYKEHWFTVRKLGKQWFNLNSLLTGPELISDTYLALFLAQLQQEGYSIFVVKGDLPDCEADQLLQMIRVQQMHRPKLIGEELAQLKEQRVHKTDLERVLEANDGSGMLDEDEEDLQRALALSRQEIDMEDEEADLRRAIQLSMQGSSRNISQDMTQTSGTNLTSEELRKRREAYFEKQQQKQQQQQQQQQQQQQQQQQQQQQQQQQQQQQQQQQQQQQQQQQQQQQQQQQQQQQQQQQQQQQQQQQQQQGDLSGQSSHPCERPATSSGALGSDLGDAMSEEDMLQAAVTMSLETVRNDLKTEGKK
Method: as §3

[6] = molecular target: T3, binding between HTTexon1-Q72-MBP and LC3B (Homo sapiens, UniProt P42858+Q9GZQ8, INS38QQQQQQQQQQQQQQQQQQQQQQQQQQQQQQQQQQQQQQQQQQQQQQQQQQQ); experiment: In vitro pull-down HTTexon1-Q72-MBP and LC3B; format: biochemical; conditions: 1 μM compound 1 or 100 nM compound 4
T3 construct: His8 (N, cleaved yes); GST (from pGEX-6P1) (N, cleaved yes); made in house; LC3B: E. coli BL21(DE3)pLsyS
T3 sequence (P42858 other isoform, or with tags, fused parts or gaps with the stated changes): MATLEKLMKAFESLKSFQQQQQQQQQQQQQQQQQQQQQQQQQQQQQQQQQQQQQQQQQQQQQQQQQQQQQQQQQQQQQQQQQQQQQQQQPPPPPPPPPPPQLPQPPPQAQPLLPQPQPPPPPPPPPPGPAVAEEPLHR
Method: Incubation was conducted. Then the unbound proteins were removed.
(3) The resin-bound proteins were eluted and analyzed by SDS-PAGE and Western-blots with anti-LC3 antibody (FIG. 22a).

[7] = molecular target: T4, full-length mHTT (flHTT-Q73) (Homo sapiens, UniProt P42858, INS38QQQQQQQQQQQQQQQQQQQQQQQQQQQQQQQQQQQQQQQQQQQQQQQQQQQQ); experiment: OI-RD affinity reaction parameters with flHTT-Q73; format: binding; conditions: OI-RD, flHTT-Q73
T4 construct: LC3B, full-length mHTT (flHTT-Q73) and full-length HTT-Q23 (flHTT-Q23); protein A (N, cleaved yes); made in house; host or cells: human embryonic kidney E293 cells
T4 sequence (P42858 with tags, fused parts or gaps with the stated changes): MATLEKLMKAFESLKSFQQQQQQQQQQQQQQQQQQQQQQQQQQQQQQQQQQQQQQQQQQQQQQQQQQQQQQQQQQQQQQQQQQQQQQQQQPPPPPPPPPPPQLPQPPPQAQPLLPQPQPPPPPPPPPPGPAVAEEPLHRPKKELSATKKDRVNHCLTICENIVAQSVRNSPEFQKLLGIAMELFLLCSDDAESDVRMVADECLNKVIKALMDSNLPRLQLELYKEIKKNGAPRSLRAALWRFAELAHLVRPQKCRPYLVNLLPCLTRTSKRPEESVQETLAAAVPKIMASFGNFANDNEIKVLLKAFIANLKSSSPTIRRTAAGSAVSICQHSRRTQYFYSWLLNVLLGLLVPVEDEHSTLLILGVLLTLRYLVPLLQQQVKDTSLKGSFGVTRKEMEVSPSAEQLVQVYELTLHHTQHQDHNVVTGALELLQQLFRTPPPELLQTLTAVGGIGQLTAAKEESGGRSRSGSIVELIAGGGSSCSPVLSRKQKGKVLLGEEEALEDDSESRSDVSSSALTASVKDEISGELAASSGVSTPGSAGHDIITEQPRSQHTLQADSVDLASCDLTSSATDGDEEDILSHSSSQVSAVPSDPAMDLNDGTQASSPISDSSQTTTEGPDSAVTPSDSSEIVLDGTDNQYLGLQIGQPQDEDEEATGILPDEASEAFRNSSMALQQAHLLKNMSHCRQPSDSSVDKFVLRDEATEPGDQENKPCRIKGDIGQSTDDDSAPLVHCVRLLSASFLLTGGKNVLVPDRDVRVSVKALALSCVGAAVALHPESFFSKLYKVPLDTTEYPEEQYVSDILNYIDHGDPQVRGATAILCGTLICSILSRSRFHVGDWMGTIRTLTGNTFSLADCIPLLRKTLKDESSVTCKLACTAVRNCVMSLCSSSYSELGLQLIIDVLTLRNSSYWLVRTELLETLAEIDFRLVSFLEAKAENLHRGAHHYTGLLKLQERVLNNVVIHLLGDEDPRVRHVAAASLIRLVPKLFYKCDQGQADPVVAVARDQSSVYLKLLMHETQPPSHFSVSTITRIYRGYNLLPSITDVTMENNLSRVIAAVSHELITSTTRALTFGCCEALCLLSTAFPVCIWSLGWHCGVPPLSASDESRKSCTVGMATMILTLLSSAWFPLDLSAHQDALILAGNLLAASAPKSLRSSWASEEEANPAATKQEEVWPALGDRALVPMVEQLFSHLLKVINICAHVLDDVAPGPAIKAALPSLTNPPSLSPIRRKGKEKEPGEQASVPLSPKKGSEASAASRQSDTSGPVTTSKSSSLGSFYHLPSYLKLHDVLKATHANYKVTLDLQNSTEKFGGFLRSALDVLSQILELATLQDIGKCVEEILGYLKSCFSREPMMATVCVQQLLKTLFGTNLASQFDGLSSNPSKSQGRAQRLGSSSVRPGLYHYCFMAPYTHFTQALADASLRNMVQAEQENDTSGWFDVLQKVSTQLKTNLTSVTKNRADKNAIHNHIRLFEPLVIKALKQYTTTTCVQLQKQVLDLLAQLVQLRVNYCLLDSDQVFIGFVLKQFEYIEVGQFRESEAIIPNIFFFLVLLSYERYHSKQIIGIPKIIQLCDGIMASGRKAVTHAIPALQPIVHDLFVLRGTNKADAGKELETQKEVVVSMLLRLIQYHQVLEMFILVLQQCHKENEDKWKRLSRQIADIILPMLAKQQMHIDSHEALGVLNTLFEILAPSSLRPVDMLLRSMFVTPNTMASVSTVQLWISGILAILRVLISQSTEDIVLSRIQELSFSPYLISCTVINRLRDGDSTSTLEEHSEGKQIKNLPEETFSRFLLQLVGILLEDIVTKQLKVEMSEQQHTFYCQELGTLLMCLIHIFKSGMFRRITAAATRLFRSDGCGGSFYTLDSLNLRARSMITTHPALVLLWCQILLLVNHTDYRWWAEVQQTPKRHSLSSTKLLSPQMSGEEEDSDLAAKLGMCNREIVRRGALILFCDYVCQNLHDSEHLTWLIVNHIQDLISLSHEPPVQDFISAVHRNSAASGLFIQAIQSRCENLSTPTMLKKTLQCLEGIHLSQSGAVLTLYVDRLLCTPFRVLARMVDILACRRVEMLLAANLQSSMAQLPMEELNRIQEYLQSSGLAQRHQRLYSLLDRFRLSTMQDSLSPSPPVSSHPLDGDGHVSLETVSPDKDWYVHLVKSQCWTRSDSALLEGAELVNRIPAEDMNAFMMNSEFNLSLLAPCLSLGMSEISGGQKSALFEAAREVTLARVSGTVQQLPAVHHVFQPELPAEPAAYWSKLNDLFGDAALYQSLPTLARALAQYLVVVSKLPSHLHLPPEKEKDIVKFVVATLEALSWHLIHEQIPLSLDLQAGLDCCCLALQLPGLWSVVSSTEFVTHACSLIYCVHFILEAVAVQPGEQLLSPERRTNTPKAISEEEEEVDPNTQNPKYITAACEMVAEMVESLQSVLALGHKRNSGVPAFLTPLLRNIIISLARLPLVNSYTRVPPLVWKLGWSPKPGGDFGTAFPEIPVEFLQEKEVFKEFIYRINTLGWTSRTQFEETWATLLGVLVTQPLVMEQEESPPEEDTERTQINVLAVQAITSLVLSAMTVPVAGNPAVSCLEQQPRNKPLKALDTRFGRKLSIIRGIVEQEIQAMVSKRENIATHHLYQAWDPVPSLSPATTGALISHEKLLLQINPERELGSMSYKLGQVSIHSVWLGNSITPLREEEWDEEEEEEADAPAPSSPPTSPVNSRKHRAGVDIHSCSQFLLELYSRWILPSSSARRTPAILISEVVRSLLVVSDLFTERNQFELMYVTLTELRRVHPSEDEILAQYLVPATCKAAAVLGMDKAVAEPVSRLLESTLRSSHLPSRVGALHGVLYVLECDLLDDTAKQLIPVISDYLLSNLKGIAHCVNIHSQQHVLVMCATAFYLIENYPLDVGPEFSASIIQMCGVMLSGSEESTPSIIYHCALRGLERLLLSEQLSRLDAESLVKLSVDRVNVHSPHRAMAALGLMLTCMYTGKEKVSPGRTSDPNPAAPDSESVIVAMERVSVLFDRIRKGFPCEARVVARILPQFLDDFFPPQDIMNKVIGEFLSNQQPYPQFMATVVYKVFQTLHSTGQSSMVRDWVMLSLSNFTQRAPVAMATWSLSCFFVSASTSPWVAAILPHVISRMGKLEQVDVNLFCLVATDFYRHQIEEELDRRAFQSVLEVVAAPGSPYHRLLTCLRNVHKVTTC
Source text: as §2

GFP = experiment: OI-RD affinity screening with GFP; format: binding; conditions: OI-RD difference images
Method: To identify compound(s) that can selectively bind to proteins containing expanded polyglutamine, screening was conducted using a method similar to 1.1, except for that the target protein HTTexon1-Q72-MBP in step (1) of 1.1 was replaced with the polyQ-GFP protein prepared in 10.1, and the target protein HTTexon1-Q25-MBP in step (2) of 1.1 was replaced with GFP.

Q72-GFP [8] = experiment: OI-RD affinity reaction parameters with Q72-GFP; format: binding
Source text: as §1

Q25-GFP [9] = experiment: OI-RD affinity screening with Q25-GFP; format: binding; conditions: OI-RD difference images
Source text: as §1

[10] = tested on: polyQ-GFP (Q72-GFP, Q25-GFP); experiment: polyQ-GFP level in HEK293T cells by Incucyte fluorescence counting; format: cell-based; conditions: Q72-GFP vs Q25-GFP expressing HEK293T cells, 100 nM compound 1, 100 nM compound 3 or 50 nM compound 4, 2 days
Source text: (1) PolyQ-GFP cDNA sequence (expressing Met-polyQ-GFP, wherein polyQ was Q72 or Q25) was synthesized de novo and subcloned into pcDNA vector. It was transfected into HEK293T cells (ATCC, CRL-3216) through forward transfection to obtain Q72-GFP expressing cells and Q25-GFP expressing cells, respectively. And the same method was used to obtain cells expressing Q53-GFP, cells expressing Q46-GFP, and cells expressing Q38-GFP.
The Q72-GFP expressing cells and Q25-GFP expressing cells obtained in step (1) of 10.1 were used. […] Then the level of polyQ-GFP was measured by Incucyte fluorescence counting (FIG. 25).

O=C1Nc2ccc(I)cc2/C1=C/c1cc(Br)c(O)c(Br)c1 [compound 1, GW5074]
mHTT selectivity relative to wtHTT (mHTT [1]; Hdh^Q140/Q7 mice, icv, 10 days): showed mHTT selectivity relative to wtHTT
mHTT level in cortices (mHTT [1]; mouse, in vivo): significantly reduced mHTT level
Kd (Q72-GFP [2]): 3 µM
binding affinity to Q25-GFP (Q25-GFP [3]): no binding affinity
Kd (Q38-GFP): 1.92 µM
Koff (Q38-GFP): 0.000338 s⁻¹
Kon (Q38-GFP): 1.06e-05 min/nM
Kd (Q53-GFP): 0.025 µM
Koff (Q53-GFP): 6.3e-05 s⁻¹
Kon (Q53-GFP): 0.000151 min/nM
concentration range in which the effect of selectively reducing mHTT levels was observed (mHTT [4]): 30 to 300 nM
preferred concentration for selectively reducing mHTT levels (mHTT [4]): 100 nM
binding to LC3B (LC3B; OI-RD difference images): can bind
Koff (LC3B; OI-RD, LC3B): 0.00029 s⁻¹
Kon (LC3B; OI-RD, LC3B): 3.72e-05 min/nM
Kd (LC3B; OI-RD, LC3B, read-out: Kd): 0.468 µM
mutant ATXN3 protein level [5]: A decrease in mutant ATXN3 protein level was observed
concentration at 2 h (in vivo): 81 ng/g
Kd (MBP-ATXN3-Q68): 6.32 µM
binding between HTTexon1-Q72-MBP and LC3B [6]: could enhance the binding
Koff [7]: 0.000133 s⁻¹
Kon [7]: 5.43e-05 min/nM
Kd ([7]; read-out: Kd): 0.0147 µM
binding to GFP (GFP): did not bind
Kd (Q72-GFP [8]): 0.18 µM
Koff (Q72-GFP [8]): 0.000252 s⁻¹
Kon (Q72-GFP [8]): 8.37e-05 min/nM
binding to Q25-GFP (Q25-GFP [9]): did not bind
level of proteins containing expanded polyglutamine in cells (polyQ-GFP) [10]: can selectively reduce the level
